Tests used:
HeLa cells [1] = assay: Transfection efficiency with GFP mRNA (Method B); type: cell-based; details: 24 h, GFP fluorescence
Description: (§1) The synthesized lipids were tested in term of in vitro transfection efficacy and toxicity on HeLa cells. In order to perform the mentioned biological tests, appropriate LNPs had to be formulated from the synthesized lipids. The formulation technique was different in Method A and B. The particle size, polydispersity index (PDI) and zeta potential of resulting LNPs were determined by means of Dynamic Light Scattering technique (DLS). Prior to biological testing the encapsulation efficiency (EE) of the loaded LNPs was determined by using RiboGreen RNA assay. In case of Method A Luc mRNA while in case of Method B GFP mRNA was transfected into the cells. In parallel with the transfection experiments, toxicity of the investigated LNPs was determined, in case of Method A resazurin assay while in case of Method B MTT assay was used. Additionally, the toxicity of the lipids was investigated on HepG2 cells and IC50 values were determined.
In 1.5 mL eppendorf: • a) Place 2.9 uL of 0.33 ug/uL mRNA solution into Eppendorf tube • b) Add 1.94 μL of supplied ethanolic solution of tested lipid and immediately mix by working pipette up-and-down several times (work the solution up and down several times before transferring to saturate pipette tip with ethanol vapors) • c) Incubate for 15 minutes. • d) Add 536 μL of MEM. Mix the solution by vortexing. • e) Incubate for 30 minutes.
• MEM (Sigma, cat #M5650-500 mL) • Fetal Bovine Serum, FBS (Sigma, cat #F7524-500 mL) • Solutions of the formulations (see above) • Dilutor: 10 mL MEM+0,036 mL ethanol • Phosphate buffered saline, PBS
• 1. Fill the edge wells of a 96-well plate with 100 μL media. • 2. Plate 10,000 HeLa cells per well in 96 well plate. […] Total 60 wells should be seeded. Incubate in MEM+10% FBS at 37° C. in a humidified atmosphere with 5% CO2 for 24 h. • 3. Examine under the microscope. Confluency must be at or nearly 80%. • 4. Gently remove the media (aspirate). Place 50 μL of the following formulations: • a) 6 wells with dilutor—negative control • b) 6 wells with Lipofectamine-50—positive control. • c) 6 wells with Lipofectamine-6—secondary positive control • d) 6 wells per formulations—test samples. • 5. Incubate plate for 1 hours at 37° C. • 6. Add 50 μL of MEM+20% FBS (which will become 10% upon dilution). • 7. Place plates into the incubator at 37° C. in a humidified atmosphere with 5% CO2 for 23 h (total 24 hours of incubation). • 8. After 24 h, aspirate the media without disturbing the cells. Gently wash cells with 100 μL of warm PBS. Aspirate PBS. • 9. Add 100 μL of fresh PBS into washed cells and read GFP fluorescence on the plate reader. • 10. This can be followed with viability assessment with the MTT assay. Cell Viability Assessment with MTT Assay (Method B)

HepG2 cell line = assay: In vitro toxicity study on HepG2 cell line (resazurin, viability and IC50); type: cell-based, human; details: resazurin; for Viability (%) at different lipid concentrations, mean: HepG2 cells, 48 h post-treatment, relative to ethanol vehicle controls; for IC50: Homo sapiens, lipid toxicity, HepG2, 48 h post-treatment, 6.25-800 μM, read-out: IC50 value, μM (on HepG2 cell)
In short: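 HepG2 cells (1000/well) were treated after overnight incubation with lipids at 6.25–800 μM for 48 h. Viability was read by resazurin fluorescence (530/580 nm) after 5 h at 37 °C, relative to ethanol vehicle controls. IC50 values came from concentration-response curves.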

HeLa cells [2] = assay: Cell viability assessment with MTT assay (Method B); type: cell-based; details: 24 h
Description: as §1
• MEM (Sigma, cat #M5650-500 mL) • Fetal Bovine Serum, FBS (Sigma, cat #F7524-500 mL) • Thiazolyl Blue Tetrazolium Bromide, MTT (TCI Chemicals, cat #D0801-5G) • Solutions of the formulations (see “Preparation of GFP mRNA loaded LNP” protocol) • Dilutor: 10 mL MEM+0,036 mL ethanol • Phosphate buffered saline, PBS
• 1. Plate 10,000 HeLa cells per well in 96 well plate. […] Total 60 wells should be seeded. Incubate in MEM+10% FBS at 37° C. in a humidified atmosphere with 5% CO2 for 24 h. • 2. Examine under the microscope. Confluency must be at or nearly 80%. • 3. Gently remove the media (aspirate). Place 50 μL of the following formulations: • a) 6 wells with dilutor—negative control • b) 6 wells with Lipofectamine-50—positive control. • c) 6 wells with Lipofectamine-6—secondary positive control • d) 6 wells per formulations—test samples. • 4. Incubate plate for 1 hours at 37° C. • 5. Add 50 μL of MEM+20% FBS (which will become 10% upon dilution). • 6. […] Measure the absorbance of each well at 570 nm using a microplate reader. Measure the absorbance at a reference wavelength of 650 nm to subtract background absorbance. • 11. […]

[3] = Apparent pKa in LNPs by TNS titration; type: physicochemical; details: lipid nanoparticles (LNPs)
Description: In the case of some lipids, the apparent pKa in LNPs was determined by using TNS titration based on the method described: Angew Chem Int Ed Engl. 2012, 51 (34), 8529-8533, doi: 10.1002/anie.201203263).

SMILES	Transfection 89 ng mRNA/well (HeLa cells [1])	Viability (%) at different lipid concentrations, mean (HepG2 cell line; 6.25 μM lipid) [%]	Viability (%) at different lipid concentrations, mean (HepG2 cell line; 12.5 μM lipid) [%]	Viability (%) at different lipid concentrations, mean (HepG2 cell line; 25 μM lipid) [%]	Viability (%) at different lipid concentrations, mean (HepG2 cell line; 50 μM lipid) [%]	Viability (%) at different lipid concentrations, mean (HepG2 cell line; 100 μM lipid) [%]	Viability (%) at different lipid concentrations, mean (HepG2 cell line; 200 μM lipid) [%]	Viability (%) at different lipid concentrations, mean (HepG2 cell line; 400 μM lipid) [%]	Viability (%) at different lipid concentrations, mean (HepG2 cell line; 800 μM lipid) [%]	IC50 (HepG2 cell line) [µM]	Cell Viability % (HeLa cells [2]) [%]	pKa [3]
CCCCC/C=C\C/C=C\CCCCCCCCOC(CCCCCCC/C=C\C/C=C\CCCCC)O[Si](C)(C)OCCCCCCN(CCO)CCO (stereo not drawn) [Example 48, (23Z,26Z)-13-((8Z,11Z)-heptadeca-8,11-dien-1-yl)-3-(2-hydroxyethyl)-11,11-dimethyl-10,12,14-trioxa-3-aza-11-siladotriaconta-23,26-dien-1-ol]	93448.3	97.4	102.2	95.7	97.8	99.6	101.5	98.4	68.3	> 800	51.5	7.73
CCCCC/C=C\C/C=C\CCCCCCCCOC(CCCCCCC/C=C\C/C=C\CCCCC)O[Si](C)(C)OCCCCCCN(C)CCO (stereo not drawn) [Example 56, (23Z,26Z)-13-((8Z,11Z)-heptadeca-8,11-dien-1-yl)-3,11,11-trimethyl-10,12,14-trioxa-3-aza-11-siladotriaconta-23,26-dien-1-ol]	78375.2	96.7	94.6	96.5	94.8	99.7	100.1	89.5	36.9	714	40.2	7.21
